Results reported in PubChem BioAssay (NCI).
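Five concentrations, 48 hours, 96-well plates. TGI: concentration producing complete growth inhibition.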

Experiments:
Assay in all cases: NCI anticancer screen, dose series, 48 h
UACC-257 melanoma = tested on: UACC-257 melanoma
UACC-62 melanoma = tested on: UACC-62 melanoma
MDA-MB-231 breast = tested on: MDA-MB-231 breast
HOP-62 NSCLC = tested on: HOP-62 NSCLC
HCT-15 colon = tested on: HCT-15 colon
COLO 205 colon = tested on: COLO 205 colon
ACHN renal = tested on: ACHN renal
A498 renal = tested on: A498 renal
SF-268 CNS = tested on: SF-268 CNS
PC-3 prostate = tested on: PC-3 prostate
U251 CNS = tested on: U251 CNS
MDA-N = tested on: MDA-N
SF-295 CNS = tested on: SF-295 CNS
T-47D breast = tested on: T-47D breast
LOX IMVI melanoma = tested on: LOX IMVI melanoma
SNB-75 CNS = tested on: SNB-75 CNS
SK-OV-3 ovarian = tested on: SK-OV-3 ovarian
HT29 colon = tested on: HT29 colon
NCI-H460 lung = tested on: NCI-H460 lung
SR leukemia = tested on: SR leukemia

| SMILES | TGI (UACC-257 melanoma) [µM] | TGI (UACC-62 melanoma) [µM] | TGI (MDA-MB-231 breast) [µM] | TGI (HOP-62 NSCLC) [µM] | TGI (HCT-15 colon) [µM] | TGI (COLO 205 colon) [µM] | TGI (ACHN renal) [µM] | TGI (A498 renal) [µM] | TGI (SF-268 CNS) [µM] | TGI (PC-3 prostate) [µM] | TGI (U251 CNS) [µM] | TGI (MDA-N) [µM] | TGI (SF-295 CNS) [µM] | TGI (T-47D breast) [µM] | TGI (LOX IMVI melanoma) [µM] | TGI (SNB-75 CNS) [µM] | TGI (SK-OV-3 ovarian) [µM] | TGI (HT29 colon) [µM] | TGI (NCI-H460 lung) [µM] | TGI (SR leukemia) [µM] |
| --- | --- | --- | --- | --- | --- | --- | --- | --- | --- | --- | --- | --- | --- | --- | --- | --- | --- | --- | --- | --- |
| CCSc1n/c(=C\c2ccco2)c2nnnn12 | > 100 | > 100 | > 100 | > 100 | > 100 | > 100 | > 100 | > 100 | > 100 | > 100 | > 100 | > 100 | > 100 | > 100 | > 100 | > 100 | > 100 | > 100 | – | – |
| CCC1(CC)SCc2nc3ccccc3n21 | 71.9 | > 100 | 90.5 | > 100 | > 100 | 40.2 | > 100 | > 100 | > 100 | 81.1 | > 100 | > 100 | > 100 | > 100 | > 100 | 51.8 | > 100 | > 100 | > 100 | – |
| CC(=O)OCc1cc(CCC(=O)NCCNc2c3ccccc3nc3ccccc23)cc(COC(C)=O)c1O[Si](C)(C)C(C)(C)C | 14.6 | 19.5 | 11.6 | 32.5 | 33.3 | 15.9 | 30.6 | 6.1 | – | 29.3 | 19.7 | 21.9 | 11.7 | 5.73 | 3.58 | – | 27.7 | 7.38 | 21.6 | 4.91 |
| S=C(NCc1ccccc1)c1nc[nH]c1C(=S)NCc1ccccc1 | 23.4 | 13.4 | 22.3 | 26.2 | 33.6 | 12.9 | 7.51 | – | 19.8 | 20.4 | 18.4 | 23 | 17.6 | 17.4 | 17.1 | 19.5 | 28.5 | 22.7 | 18.7 | – |
| O=C(NCCCCCCNC(=O)c1cccc2ccccc12)Nc1cccc2ccccc12 | > 100 | > 100 | > 100 | > 100 | > 100 | > 100 | > 100 | > 100 | > 100 | > 100 | > 100 | > 100 | > 100 | > 100 | > 100 | > 100 | – | > 100 | > 100 | – |
| CS(=O)(=O)Nc1ccc(N2Cc3cnc4ccc5[nH]ccc2c5c34)cc1 | 31.8 | 35.9 | 37.5 | 59.2 | > 100 | 32.2 | > 100 | 49.4 | – | 42 | 36.5 | 29.3 | > 100 | 20.5 | 28.2 | – | – | 95.7 | 46.2 | – |
| O=[N+]([O-])c1ccc(/C=N/n2c(CO)nc3ccccc32)o1 | 6.25 | 21.9 | 20.6 | 28.7 | 15.7 | 10.6 | 17.3 | 32.4 | 22.7 | 26.1 | 37.2 | 13.3 | 25.2 | 47.9 | 15.9 | 57.1 | 71.9 | 10.3 | 16.3 | – |
| Cc1cc2nc3c(C#N)c(-c4ccccc4)cc(Nc4ccc(Cl)cc4)n3c2cc1C | > 100 | – | > 100 | > 100 | > 100 | > 100 | > 100 | > 100 | > 100 | > 100 | > 100 | > 100 | > 100 | > 100 | > 100 | > 100 | > 100 | – | > 100 | – |
| CCn1c(-c2cc(OC)cc(OC)c2)nc2c1C(=O)c1ccccc1C2=O | > 100 | > 100 | > 100 | > 100 | > 100 | > 100 | > 100 | – | > 100 | > 100 | > 100 | > 100 | > 100 | > 100 | – | > 100 | > 100 | > 100 | > 100 | > 100 |
| COc1ccc(/C=C(/C(=O)c2ccc(Cl)cc2)N2C=CC=CC2=C(C#N)C#N)cc1OC | 17.2 | 28.2 | 21.6 | 51.1 | 6.19 | 3.32 | 11.9 | 30.5 | 17.2 | 12.9 | 24.4 | 20.1 | > 85.3 | 29.4 | 8.3 | 20.3 | > 82.1 | 13.1 | 25.5 | – |
| CC(=O)NC1C(OCc2ccccc2)OC(CO)C(O)C1OC(C)C(=O)NC(C)C(=O)NC(CCC(=O)NCCCNc1c2ccccc2nc2cccc([N+](=O)[O-])c12)C(N)=O (stereo not given) | 4.71 | 3.82 | 3.26 | 8.78 | 7.3 | 2.34 | 6.9 | 6.11 | 6.32 | – | 12.8 | 2.77 | 35.2 | > 100 | 27.7 | 9.92 | 34.7 | > 100 | 1.96 | > 100 |
| COc1cc(-c2cc(=O)c3c(OC)c(OC)c(OC)c(OC)c3o2)c(OC)c(OC)c1OC | > 100 | 49.1 | > 100 | > 100 | > 100 | > 100 | > 100 | – | > 100 | 50.1 | > 100 | > 100 | > 100 | 51 | > 100 | > 100 | > 100 | > 100 | > 100 | > 100 |
| COc1ccc(N=C2SC(=N/N=c3\sc4ccccc4n3C)SC2=Nc2ccc(OC)cc2)cc1 | > 100 | > 100 | 66 | > 100 | > 100 | > 100 | > 100 | – | > 100 | > 100 | > 100 | > 100 | > 100 | > 100 | – | 94.5 | > 100 | > 100 | > 100 | > 100 |
| CN1C(=O)N/C(=C\c2ccc(S(=O)(=O)NN)cc2)C1=O | > 100 | > 100 | > 100 | > 100 | > 100 | > 100 | > 100 | > 100 | > 100 | > 100 | > 100 | > 100 | > 100 | > 100 | > 100 | > 100 | > 100 | > 100 | – | – |
| C=CCNC1=C2C[C@@H](C)C[C@@H](OC)[C@H](OC(=O)CCCCN)[C@H](C)/C=C(\C)[C@@H](OC(N)=O)[C@H](OC)/C=C\C=C(/C)C(=O)NC(=CC1=O)C2=O | 18.9 | 27.7 | 27.7 | 18.5 | 34.1 | 16.6 | 34 | 25.9 | 32.8 | – | 22.8 | 22 | 29.9 | 29.9 | 27.5 | 15.2 | 19.9 | 14.8 | 26 | > 100 |
| COC(=O)Cc1cc(O)c(C/C=C(\C)CC/C=C(\C)C(O)C(=O)C=C(C)C)cc1O (stereo not given) | 77.6 | 44.4 | 78.3 | 41.6 | – | 57.7 | 71 | – | 40.6 | 87.7 | 35.7 | > 100 | 55.1 | 43.2 | – | 56.4 | 78.8 | 61.3 | 48.3 | 41.6 |
| CC(C)C1OC23CCCCC2C(C#N)(C#N)C1(C#N)C(=N)O3 (stereo not given) | 45.9 | 58 | 39.7 | – | 23.5 | 33.5 | > 100 | 60 | 46.6 | > 100 | 63.9 | 32.7 | > 100 | 71.7 | 54 | > 100 | > 100 | 43.8 | 32 | – |
| O=Cc1cc2c(cc1-c1c(C=O)ccc3c1OCO3)OCO2 | > 10 | > 10 | > 10 | > 10 | > 10 | > 10 | > 10 | – | > 10 | > 10 | > 10 | > 10 | > 10 | > 10 | > 10 | > 10 | > 10 | > 10 | – | > 10 |
| Clc1c(Cl)c(Cl)c2nn(C3CCCO3)nc2c1Cl (stereo not given) | > 100 | > 100 | > 100 | > 100 | – | > 100 | – | > 100 | > 100 | > 100 | > 100 | > 100 | > 100 | > 100 | – | – | > 100 | > 100 | – | > 100 |
| O=C(O)c1n[nH]nc1Cl | > 100 | > 100 | > 100 | > 100 | > 100 | > 100 | > 100 | > 100 | > 100 | > 100 | > 100 | > 100 | > 100 | > 100 | > 100 | > 100 | > 100 | > 100 | > 100 | – |
